Data: US20150258101A1 (Proximagen Limited, priority 2014, published 2015)
Where a name gives a salt, the structure may show the parent alone.

Target: T1, purified recombinantly expressed human SSAO (Homo sapiens, UniProt Q16853)
T1 construct: made in house
T1 sequence (Q16853 1-763): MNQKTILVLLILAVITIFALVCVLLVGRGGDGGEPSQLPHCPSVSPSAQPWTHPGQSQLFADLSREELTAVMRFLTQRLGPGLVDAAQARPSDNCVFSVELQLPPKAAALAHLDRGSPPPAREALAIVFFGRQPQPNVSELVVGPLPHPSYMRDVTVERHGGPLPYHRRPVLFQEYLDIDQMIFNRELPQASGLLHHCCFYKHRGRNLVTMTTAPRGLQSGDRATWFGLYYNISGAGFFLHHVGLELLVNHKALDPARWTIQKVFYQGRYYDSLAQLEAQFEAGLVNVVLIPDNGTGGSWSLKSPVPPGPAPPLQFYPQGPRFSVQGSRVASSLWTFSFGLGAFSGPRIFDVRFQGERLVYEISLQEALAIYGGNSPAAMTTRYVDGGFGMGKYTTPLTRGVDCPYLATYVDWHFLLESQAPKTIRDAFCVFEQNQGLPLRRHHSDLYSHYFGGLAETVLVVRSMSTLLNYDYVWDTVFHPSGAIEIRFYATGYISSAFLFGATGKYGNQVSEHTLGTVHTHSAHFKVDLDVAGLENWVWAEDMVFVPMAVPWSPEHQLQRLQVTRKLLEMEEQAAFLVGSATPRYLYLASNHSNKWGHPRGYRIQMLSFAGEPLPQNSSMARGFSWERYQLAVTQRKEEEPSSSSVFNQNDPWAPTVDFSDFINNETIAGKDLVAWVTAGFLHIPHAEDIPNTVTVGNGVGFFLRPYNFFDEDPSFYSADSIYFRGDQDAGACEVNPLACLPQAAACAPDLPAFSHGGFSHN
Assay: SSAO enzyme inhibition assay (benzylamine substrate; hydrogen peroxide/HRP-coupled or 14C aldehyde detection)
Type: biochemical
Details: SSAO inhibitory activity, RT
Procedure, shortened: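 IC50 values came from a four-parameter logistic fit of % signal decrease versus DMSO control, with no-enzyme background subtracted. Two read-outs were used with human recombinant SSAO after ~15 min compound pre-incubation at RT. In the H2O2/HRP-Amplex read-out, enzyme was 1 ug/ml and benzylamine 100 uM (pH 7.4 phosphate), with resorufin fluorescence followed 1-2 h. In the 14C-benzaldehyde read-out (PBS), enzyme was 10 ug/ml and benzylamine 40 uM, run 1 h then acid-stopped.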

Row | Compound | IC50 [nM]
1 | Cc1ccc(-n2c(-c3ccc(N4CCOCC4)nc3)nc3ccncc32)cn1 [Example 64, 4-{5-[3-(6-Methylpyridin-3-yl)-3H-imidazo[4,5-c]pyridin-2-yl]pyridin-2-yl}morpholine] | 200 to 1200
2 | CS(=O)(=O)N1CCN(c2ccc(-c3nc4ccncc4n3-c3ccc(F)cc3)cn2)CC1 [Example 89, 1-{5-[3-(4-Fluorophenyl)-3H-imidazo[4,5-c]pyridin-2-yl]pyridin-2-yl}-4-methanesulfonylpiperazine] | < 50
3 | Fc1ccc(-n2c(-c3cnc(N4CCOCC4)c(F)c3)nc3ccncc32)cc1 [Example 98, 4-{3-Fluoro-5-[3-(4-fluorophenyl)-3H-imidazo[4,5-c]pyridin-2-yl]pyridin-2-yl]morpholine] | 50 to 200
4 | Cn1c(-c2cc3ccncc3n2-c2ccc(Cl)cc2)cccc1=O [Example 145, 6-[1-(4-Chlorophenyl)-1H-pyrrolo[2,3-c]pyridin-2-yl]-1-methyl-1,2-dihydropyridin-2-one] | < 50
5 | Clc1ccc(-n2c(-c3cnc(N4CCOCC4)cn3)nc3ccncc32)cc1 [Example 5, 4-{5-[3-(4-Chlorophenyl)-3H-imidazo[4,5-c]pyridin-2-yl]pyrazin-2-yl}morpholine] | 50 to 200
6 | Cn1cc(-c2cc3ccncc3n2-c2ccc(Cl)cc2)cn1 [Example 135, 4-[1-(4-Chlorophenyl)-1H-pyrrolo[2,3-c]pyridin-2-yl]-1-methyl-1H-pyrazole] | < 50
7 | COCCCNc1ncc(-c2nc3ccncc3n2-c2ccc(C)cc2)cn1 [Example 37, N-(3-Methoxypropyl)-5-[3-(4-methylphenyl)-3H-imidazo [4,5-c]pyridin-2-yl]pyrimidin-2-amine] | < 50
8 | Cc1ccc(-n2c(-c3cnc(N4CCOCC4)cc3C)nc3ccncc32)cn1 [Example 107, 4-{4-Methyl-5-[3-(6-methylpyridin-3-yl)-3H-imidazo[4,5-c]pyridin-2-yl]pyridin-2-yl}morpholine] | < 50
9 | Fc1ccc(-n2c(-c3ccc(C4CCOCC4)nn3)nc3ccncc32)cc1 [Example 15, 3-[3-(4-Fluorophenyl)-3H-imidazo[4,5-c]pyridin-2-yl]-6-(oxan-4-yl)pyridazine] | 50 to 200
10 | CCOCCNc1ncc(-c2nc3ccncc3n2-c2ccc(C)cc2)cn1 [Example 43, N-(2-Ethoxyethyl)-5-[3-(4-methylphenyl)-3H-imidazo [4,5-c]pyridin-2-yl] pyrimidin-2-amine] | < 50
11 | Cn1cc(-c2nc3ccncc3n2-c2ccc(Cl)cc2)ccc1=O [Example 33, 5-[3-(4-Chlorophenyl)-3H-imidazo[4,5-c]pyridin-2-yl]-1-methyl-1,2-dihydropyridin-2-one] | 200 to 1200
12 | O=c1cc(-c2nc3ccncc3n2-c2ccc(F)cc2)ccn1C1CC1 [Example 115, 1-Cyclopropyl-4-[3-(4-fluorophenyl)-3H-imidazo[4,5-c]pyridin-2-yl]-1,2-dihydropyridin-2-one] | < 50
13 | Cn1nccc1-c1cc2ccncc2n1-c1ccc(Cl)cc1 [Example 134, 5-[1-(4-Chlorophenyl)-1H-pyrrolo[2,3-c]pyridin-2-yl]-1-methyl-1H-pyrazole] | < 50
14 | Cn1ccc(-c2cc3ccncc3n2-c2ccc(Cl)cc2)cc1=O [Example 143, 4-[1-(4-Chlorophenyl)-1H-pyrrolo[2,3-c]pyridin-2-yl]-1-methyl-1,2-dihydropyridin-2-one] | < 50
15 | Oc1ccc(-n2c(-c3ccc(N4CCOCC4)nc3)nc3ccncc32)cc1 [Example 65, 4-{2-[6-(Morpholin-4-yl)pyridin-3-yl]-3H-imidazo[4,5-c]pyridin-3-yl}phenol] | < 50
16 | Cn1ccc(-c2nc3ccncc3n2-c2ccc(F)cc2)cc1=O [Example 114, 4-[3-(4-Fluorophenyl)-3H-imidazo[4,5-c]pyridin-2-yl]-1-methyl-1,2-dihydropyridin-2-one] | 200 to 1200
17 | Cc1ccc(-n2c(-c3cnc(N4CCOCC4)cc3C)nc3ccncc32)cc1 [Example 97, 4-{4-Methyl-5-[3-(4-methylphenyl)-3H-imidazo[4,5-c]pyridin-2-yl]pyridin-2-yl}morpholine] | 200 to 1200
18 | NC(=O)N1CCN(c2ccc(-c3nc4ccncc4n3-c3ccc(Cl)cc3)cn2)CC1 [Example 90, 4-{5-[3-(4-Chlorophenyl)-3H-imidazo[4,5-c]pyridin-2-yl]pyridin-2-yl}piperazine-1-carboxamide dihydrochloride] | < 50
19 | Clc1ccc(-n2c(-c3cnc(N4CCNCC4)s3)nc3ccncc32)cc1 [Example 19, 1-{5-[3-(4-Chlorophenyl)-3H-imidazo[4,5-c]pyridin-2-yl]-1,3-thiazol-2-yl}piperazine] | 50 to 200
20 | O=C(c1ccc(-c2nc3ccncc3n2-c2ccc(Cl)cc2)cn1)N1CCOCC1 [Example 6, 4-({5-[3-(4-Chlorophenyl)-3H-imidazo[4,5-c]pyridin-2-yl]pyridin-2-yl}carbonyl) morpholine] | 200 to 1200
21 | Cc1ccc(-n2c(-c3ccc(N4C[C@@H](C)O[C@@H](C)C4)nc3)nc3ccncc32)cn1 [Example 103, (2R,6S)-2,6-Dimethyl-4-{5-[3-(6-methylpyridin-3-yl)-3H-imidazo[4,5-c]pyridin-2-yl]pyridin-2-yl}morpholine; tris(trifluoroacetic acid)] | 50 to 200
22 | Fc1ccc(-n2c(-c3ccc(OC4CCOC4)nc3)nc3ccncc32)cc1 (stereo not shown) [Example 112, 5-[3-(4-Fluorophenyl)-3H-imidazo[4,5-c]pyridin-2-yl]-2-(oxolan-3-yloxy)pyridine] | < 50
23 | Fc1ccccc1-n1c(-c2cnc(N3CCOCC3)nc2)nc2ccncc21 [Example 60, 4-{5-[3-(2-Fluorophenyl)-3H-imidazo[4,5-c]pyridin-2-yl]pyrimidin-2-yl}morpholine] | 50 to 200
24 | Fc1ccc(-n2c(-c3ccc(N4CCOCC4)nc3)nc3ccncc32)c(F)c1 [Example 41, 4-{5-[3-(2,4-Difluorophenyl)-3H-imidazo[4,5-c]pyridin-2-yl]pyridin-2-yl}morpholine] | < 50
25 | Cc1ccc(-n2c(-c3cnc(N4CCOCC4)nc3)nc3ccncc32)cn1 [Example 58, 4-{5-[3-(6-Methylpyridin-3-yl)-3H-imidazo[4,5-c]pyridin-2-yl]pyrimidin-2-yl}morpholine] | 200 to 1200
26 | Cc1nc(N2CCOCC2)ncc1-c1nc2ccncc2n1-c1ccc(Cl)cc1F [Example 27, 4-{5-[3-(4-Chloro-2-fluorophenyl)-3H-imidazo [4,5-c]pyridin-2-yl]-4-methylpyrimidin-2-yl} morpholine] | < 50
27 | Clc1ccc(-n2c(-c3ccc(Cn4ccnc4)cc3)nc3ccncc32)cc1 [Example 48, 1-({4-[3-(4-Chlorophenyl)-3H-imidazo[4,5-c]pyridin-2-yl]phenyl}methyl)-1H-imidazole] | < 50
28 | CN1CCN(C(=O)c2ccc(-c3cc4ccncc4n3-c3ccc(Cl)cc3)cc2)CC1 [Example 125, 1-({4-[1-(4-Chlorophenyl)-1H-pyrrolo[2,3-c]pyridin-2-yl]phenyl}carbonyl)-4-methylpiperazine] | 200 to 1200
29 | COc1nc(N2CCOCC2)ccc1-c1nc2ccncc2n1-c1ccc(F)cc1 [Example 28, 4-{5-[3-(4-Fluorophenyl)-3H-imidazo[4,5-c]pyridin-2-yl]-6-methoxypyridin-2-yl} morpholine] | 50 to 200
30 | Cn1ccc(-c2nc3ccncc3n2-c2ccc(Cl)cc2)cc1=O [Example 32, 4-[3-(4-Chlorophenyl)-3H-imidazo[4,5-c]pyridin-2-yl]-1-methyl-1,2-dihydropyridin-2-one] | < 50

Target: T2, human ether a go-go related gene (hERG) K+ channel (Homo sapiens, UniProt Q12809)
T2 construct: a Chinese Hamster Lung cell line stably expressing the full length hERG channel; expressed in transfected cells; host or cells: Chinese Hamster Lung cell line
Assay: hERG assay, IonWorks patch clamp electrophysiology
Type: cell-based
Details: Chinese Hamster Lung cell line stably expressing hERG; max assay concentration 11 uM
Description: Compounds of the invention were tested for inhibition of the human ether a go-go related gene (hERG) K^+ channel using IonWorks patch clamp electrophysiology. 8 Point concentration-response curves were generated on two occasions using 3-fold serial dilutions from the maximum assay concentration (11 uM). Electrophysiological recordings were made from a Chinese Hamster Lung cell line stably expressing the full length hERG channel. Single cell ion currents were measured in the perforated patch clamp configuration (100 ug/mL amphoterocin) at room temperature using an IonWorks Quattro instrument. The internal solution contained 140 mM KCl, 1 mM MgCl2, 1 mM EGTA and 20 mM HEPES and was buffered to pH 7.3. The external solution contained 138 mM NaCl, 2.7 mM KCl, 0.9 mM CaCl2, 0.5 mM MgCl2, 8 mM Na2HPO4 and 1.5 mM KH2PO4, and was buffered to pH 7.3. […] This sequence was repeated 5 times at a frequency of 0.25 Hz. Currents were measured from the tail step at the 5th pulse, and referenced to the holding current. Compounds were incubated for 6-7 min prior to a second measurement of the hERG signal using an identical pulse train. […] A control compound (quinidine) was used (see Table 20 below).

T2 sequence (Q12809 whole entry): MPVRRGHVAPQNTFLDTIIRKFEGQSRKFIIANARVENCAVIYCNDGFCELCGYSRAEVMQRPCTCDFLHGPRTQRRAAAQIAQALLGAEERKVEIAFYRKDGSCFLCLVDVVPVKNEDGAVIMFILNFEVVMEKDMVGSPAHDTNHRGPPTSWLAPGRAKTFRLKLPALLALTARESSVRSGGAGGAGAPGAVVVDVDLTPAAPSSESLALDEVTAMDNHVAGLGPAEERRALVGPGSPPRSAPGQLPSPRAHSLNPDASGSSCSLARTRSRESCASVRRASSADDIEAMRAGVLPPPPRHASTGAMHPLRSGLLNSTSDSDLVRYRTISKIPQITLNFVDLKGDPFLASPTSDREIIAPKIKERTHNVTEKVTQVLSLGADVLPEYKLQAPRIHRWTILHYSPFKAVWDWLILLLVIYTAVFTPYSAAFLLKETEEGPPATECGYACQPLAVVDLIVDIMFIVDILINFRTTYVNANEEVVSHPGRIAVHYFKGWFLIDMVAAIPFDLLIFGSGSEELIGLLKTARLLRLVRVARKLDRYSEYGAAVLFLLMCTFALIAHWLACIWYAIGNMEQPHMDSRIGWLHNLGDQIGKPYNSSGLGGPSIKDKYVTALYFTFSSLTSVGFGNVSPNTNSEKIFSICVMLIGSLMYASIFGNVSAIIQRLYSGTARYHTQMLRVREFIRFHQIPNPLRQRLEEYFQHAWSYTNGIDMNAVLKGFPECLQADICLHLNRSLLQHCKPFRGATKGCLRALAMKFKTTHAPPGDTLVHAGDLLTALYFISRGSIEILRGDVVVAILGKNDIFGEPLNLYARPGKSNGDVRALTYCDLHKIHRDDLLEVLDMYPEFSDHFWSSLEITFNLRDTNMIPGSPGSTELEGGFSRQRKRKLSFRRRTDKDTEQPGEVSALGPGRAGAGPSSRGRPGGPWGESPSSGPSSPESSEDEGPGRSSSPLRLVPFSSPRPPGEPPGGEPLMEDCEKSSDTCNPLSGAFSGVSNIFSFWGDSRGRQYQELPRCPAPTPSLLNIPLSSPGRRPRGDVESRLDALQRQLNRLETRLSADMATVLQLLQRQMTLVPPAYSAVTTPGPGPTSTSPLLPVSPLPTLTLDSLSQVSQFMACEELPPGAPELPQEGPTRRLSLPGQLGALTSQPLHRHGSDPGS

Row | Compound | IC50 [nM]
31 | Cc1ccc(-n2c(-c3ccc(N4CCOCC4)nc3)nc3ccncc32)cn1 [Example 64, 4-{5-[3-(6-Methylpyridin-3-yl)-3H-imidazo[4,5-c]pyridin-2-yl]pyridin-2-yl}morpholine] | > 10000
32 | CS(=O)(=O)N1CCN(c2ccc(-c3nc4ccncc4n3-c3ccc(F)cc3)cn2)CC1 [Example 89, 1-{5-[3-(4-Fluorophenyl)-3H-imidazo[4,5-c]pyridin-2-yl]pyridin-2-yl}-4-methanesulfonylpiperazine] | > 10000
33 | Fc1ccc(-n2c(-c3cnc(N4CCOCC4)c(F)c3)nc3ccncc32)cc1 [Example 98, 4-{3-Fluoro-5-[3-(4-fluorophenyl)-3H-imidazo[4,5-c]pyridin-2-yl]pyridin-2-yl]morpholine] | > 10000
34 | c1ccc(-n2c(-c3cnc(N4CCOCC4)nc3)cc3ccncc32)cc1 [Example 131, 4-(5-{1-Phenyl-1H-pyrrolo[2,3-c]pyridin-2-yl}pyrimidin-2-yl)morpholine] | 1000 to 10000
